Data on three molecules can be found in patent US8470878B2, “Heterocyclic sulfonamide derivatives” (Novartis AG, priority 2011, dated 2013).

The target in one data set is T1, BRAF-MEK-ERK cascade (Homo sapiens, UniProt Q02750).
T1 construct: human full length MEK1 kinase (Cat No. 14-706); purchased Upstate 14-557 (BRAF V599E); 14-706 (MEK1); 14-536 (ERK2)
Kind of data set: BRAF-MEK-ERK enzymatic cascade assay (TR-FRET). Particulars: mean±SEM, n=3; 10 point dose response, 45 minutes pre-incubation. It counts as biochemical. An excerpt:
A BRAF-MEK-ERK cascade assay is used to evaluate the effects of these compounds as inhibitors of the MAP kinase pathway. An enzymatic cascade assay is set up using recombinant human activated BRAF (V599E) kinase (Cat No. 14-557), human full length MEK1 kinase (Cat No. 14-706) and human full length active MAP Kinase 2/ERK2 (Cat No. 14-536) enzymes procured from Upstate. TR-FRET (Time resolved fluorescence resonance energy transfer) detection technology is used for the read out. […] The kinase reaction is stopped after 90 minutes with 10 mM EDTA and Lance detection mix (2 nM Eu-labeled phospho-serine/threonine antibody (Cat. No. AD0176-Perkin Elmer), 20 nM SA-APC (Cat No. CR130-100-Perkin Elmer) is added. The TR-FRET signal (Excitation at 340 nm, Emission at 615 nm and 665 nm) is read with 50 μs delay time on a Victor3 V fluorimeter. The data is calculated using the ratio of readings at 665 nm to 615 nm. The final concentration of DMSO is 2.5% in the assay. Compounds are screened at 10 μM concentration with pre-incubation of the enzymes in the presence of test compound for 45 minutes.
Each individual IC50 is determined using a 10 point dose response curve generated by GraphPad Prism software Version 4 (San Diego, Calif., USA) using non linear regression curve fit for sigmoidal dose response (variable slope).
These assays described above are fully detailed in Han, Shulin, et. al., Bioorganic & Medicinal Chemistry Letters (2005) 15, 5467-5473, and in Yeh, et. al., Clin Cancer Res (2007) 13 (5), 1576-1583.
A general note: TR-FRET usually uses a lanthanide donor and a delayed reading to cut background.

Data set [1] in a line: Pharmacokinetics in athymic nude rats. It is filed as in vivo. Particulars: rat; for AUC / clearance / half-life / Vd / bioavailability / Cmax: athymic nude, plasma; for bioavailability: p.o. (3 mg/kg) vs i.v. (0.5 mg/kg), oral bioavailability; for PK-parameters compared to Example 1: one-way analysis of variance. As for the experimental part:
Pharmacokinetics in Athymic Nude Rats
For pharmacokinetics studies, the following parameters were calculated by non-compartmental regression analysis using Winnonlin 5.0 software (Pharsight, Mountain View, Calif., USA): half life in plasma (t1/2term); plasma clearance (CL); plasma maximum concentration (Cmax); plasma area-under-the-concentration-time-curve (AUC); and percent oral bioavailability (F %).

The subject of data set [2] is DUSP6 expression in A375 tumors. Kind of data set: A375 B-RafV600E human melanoma model in rat, PK-PD experiment (DUSP6 expression in tumor, real time quantitative PCR). Particulars: A375 tumor bearing rats, single oral dose, at 12 h and 24 h post dosing; two-way analysis of variance, p=0.003 and p=0.006. It counts as in vivo. The procedure: A375 B-RafV600E Human Melanoma Model in Rat—PK-PD Experiment:
A375 cells were thawed using a 37° C. water bath. Cells were transferred to a tube containing 10 mls of warm DMEM medium. The tube was centrifuged for 5 minutes at 1200 rpm and the supernatant was discarded. The cell pellet was re-suspended and transferred to a 75 cm^2 tissue culture flask containing 15 mls of medium and cultured at 37° C. in a 5% CO2 incubator.
On the day of the cells implantation, cells were harvested (about 85% confluent), and re-suspended in cold medium containing 4 mg/ml of matrigel. This cell suspension was injected, subcutaneously, to athymic-nude pre-irradiated (500 rads) rats. Ten million cells (injection volume, 200 μL) were injected, subcutaneously, into the right flank region of the rats 24 hours after irradiation. Tumor bearing rats were randomized when the tumor volume reached approximately 500 mm^3 after about 15 to 20 days. Three rats were used for each time point.
Rats were treated orally with a single dose of 10, 30 and 60 mg/kg p.o. of Example 1A and 30 mg/kg of Example 1B. […] The mRNA expression levels of two direct target genes of MEK substrate P-Erk (DUSP6 and SPRY4) and an indirect target (BMF) can be measured. […] The tumor samples were pulverized, extracted and studied for expression of the […] DUSP6 using a real time quantitative PCR.

Consider `O=S(=O)(Nc1c(Nc2ccc(I)cc2F)c(F)c(F)c2ccoc12)C1(C[C@@H](O)CO)CC1` [Example 1B, (R)—N-(4,5-difluoro-6-((2-fluoro-4-iodophenyl)amino)benzofuran-7-yl)-1-(2,3-dihydroxypropyl)cyclopropane-1-sulfonamide], for which, on BRAF-MEK-ERK cascade, the half-maximal inhibitory concentration (IC50) was 1.6 ± 0.1 nM. In data set [1] (iv, i.v. (0.5 mg/kg)), this molecule had an AUC of 100 ± 14 µg·h/mL, a clearance of 5.2 mL/h/kg, a half-life of 17.1 ± 1.8 h and a Vd of 0.125 ± 0.006 L/kg. For the same molecule, in data set [1], the bioavailability stood at 126% and the “PK-parameters compared to Example 1” value is “improved PK-parameters compared to Example 1”. In data set [1] (po, p.o. (3 mg/kg)), this molecule gave an AUC of 752 ± 84 µg·h/mL and a maximum concentration (Cmax) of 25200 ± 2700 ng/mL.
In the case of `O=S(=O)(Nc1c(Nc2ccc(I)cc2F)c(F)c(F)c2ccoc12)C1(CC(O)CO)CC1` (racemic) [Example 1, 1-(2,3-Dihydroxy-propyl)-cyclopropanesulfonic acid [4,5-difluoro-6-(2-fluoro-4-iodo-phenylamino)-benzofuran-7-yl]amide], the IC50 against BRAF-MEK-ERK cascade was determined as 2.1 ± 0.58 nM. Besides, in data set [1] (iv, i.v. (0.5 mg/kg)), the AUC was 70 ± 9 µg·h/mL, the clearance was 7.6 mL/h/kg, the half-life was 15.6 ± 1.7 h and the Vd was 0.17 ± 0.006 L/kg. Besides, the bioavailability in data set [1] was determined as 87%. In data set [1] (po, p.o. (3 mg/kg)), this molecule returned an exposure (AUC) of 365 ± 45 µg·h/mL and a peak concentration (Cmax) of 9800 ± 700 ng/mL.
Regarding `O=S(=O)(Nc1c(Nc2ccc(I)cc2F)c(F)c(F)c2ccoc12)C1(C[C@H](O)CO)CC1` [Example 1A, (S)—N-(4,5-difluoro-6-((2-fluoro-4-iodophenyl)amino)benzofuran-7-yl)-1-(2,3-dihydroxypropyl)cyclopropane-1-sulfonamide], at BRAF-MEK-ERK cascade, the half-maximal inhibitory concentration (IC50) is 2 ± 0.25 nM. In data set [1] (iv, i.v. (0.5 mg/kg)), this molecule showed an AUC of 126 ± 3 µg·h/mL, a clearance of 4 mL/h/kg, a half-life of 19.9 ± 0.8 h and a Vd of 0.11 ± 0.006 L/kg. For the same molecule, in data set [1], the bioavailability worked out at 132% and the “PK-parameters compared to Example 1” value is “improved PK-parameters compared to Example 1”. In data set [1] (po, p.o. (3 mg/kg)), this molecule displayed an AUC of 994 ± 30 µg·h/mL and a Cmax of 25600 ± 700 ng/mL. Also, in data set [2], the “lowering levels of DUSP-6 in tumor” value is listed as “significantly more effective than Example-1B”.

Broadly, the IC50 is the concentration at which inhibition is half-maximal. Low values mean higher potency, high ones lower potency. In general, AUC refers to the area under the concentration-time curve, a measure of exposure. Higher therefore signals high exposure. As usually defined, the clearance is the volume of plasma or blood freed of the substance per unit of time. Lower therefore signals inefficient removal. For orientation: half-life means the time in which the quantity being followed falls by half. High values mean slow loss, low ones fast loss. A word on the Vd: it is the apparent volume that relates the amount in the body to the concentration in plasma or blood. Low values mean confinement near the circulation, high ones extensive tissue distribution. One may read the Cmax as the peak of the concentration-time curve.
